The record followed here is US10807960B2, “Compounds, compositions, and methods for controlling biofilms” (KATHOLIEKE UNIVERSITEIT LEUVEN, priority 2015, dated 2020).

The structures appear in SMILES notation. Read-outs that look alike come from different tables or passages of the source.

For data set [1], the system named is S. liquefaciens MG44. The experiment in a line: static peg (Calgary Biofilm Device) anti-biofilm assay, crystal violet and OD600. The following applies: 25° C. It is filed as cell-based, Serratia liquefaciens.
Data set [2] concerns C. albicans SC5314. Nature of the data set: inhibition of C. albicans biofilms, cell titer blue (CTB) quantification. The format is cell-based, Candida albicans. Particulars: for IC50: biofilm formation, 37° C., read-out: BIC50. The method, then:
The potential of the compounds to prevent C. albicans SC5314 biofilm formation was assessed using the cell titer blue (CTB) quantification method (26). For the CTB method, an overnight culture of C. albicans SC5314 was washed with PBS and a cell suspension of 10^6 cells/ml (OD600=0.1) was prepared in RPMI 1640 medium (pH 7.0). […] After 16 h of static incubation at 37° C., biofilms were washed and quantified with CTB as described previously.
In general terms: Alamar Blue is a resazurin reagent that responds to reducing activity.

The subject of data set [3] is E. coli TG1 + P. aeruginosa PA14. Nature of the data set: mixed E. coli/P. aeruginosa biofilm assay, crystal violet. It is filed as cell-based. Particulars: for IC50: 37° C. (Table 3). The method, then: Overnight cultures of E. coli TG1 and P. aeruginosa PA14, were diluted 1/100 in the same vial of TSB 1/20 to form a mixed culture suspension.
Data set [4] deals with S. aureus ATCC6538 + S. epidermidis. Nature of the data set: mixed S. aureus/S. epidermidis biofilm assay, crystal violet. The format is cell-based. The following applies: 37° C. (Table 3). The method, then: Overnight cultures of S. aureus ATCC6538 and S. epidermidis were grown in LB medium and were diluted 1/200 in the same vial of TSB to form a mixed culture suspension.

Data set [5] relates to S. aureus ATCC6538. Nature of the data set: static peg (Calgary Biofilm Device) anti-biofilm assay, crystal violet and OD600. Particulars: 37° C.
Data set [6] concerns S. aureus SH1000. The description is as above. Particulars: for IC50: 37° C.
Data set [7] relates to S. epidermidis. Described as above. Particulars: for IC50: 37° C.
Data set [8] has as its system P. gingivalis ATCC33277. The description is as above.
Data set [9] concerns E. coli TG1. The data set is described as above. The following applies: for IC50: 37° C.
Data set [10] has as its system P. aeruginosa PA14. The data set is described as above.
Data set [11] concerns S. Typhimurium ATCC14028. The description is as above.
The subject of data set [12] is B. cepacia LMG1222T. The data set is described as above. Particulars: for IC50: 25° C.
Data set [13] relates to C. albicans SC5314 + S. epidermidis. Nature of the data set: mixed C. albicans/S. epidermidis biofilm assay, selective plating. The format is cell-based, Candida albicans; Staphylococcus epidermidis. Particulars: for activity at 100 µM: 100 μM (Table 5); for activity at 25 µM: 25 μM (Table 5). The method, then:
The concentrations 25 μM (0.0625% DMSO or ethanol) and 100 μM (0.25% DMSO or ethanol) were tested. After 24 h of incubation at 37° C., biofilms were washed with PBS and fresh medium with or without compounds was added. After further incubation for 48 h at 37° C., the biofilms were washed with PBS after which the cells were re-suspended in 100 μl of PBS by scraping off, sonication (1 min, 45 kHz, USC300-T; VWR, Radnor, Pa., USA) and vigorously pipetting up-and-down. Finally, the biofilm cells were diluted in PBS and plated on YPD agar plates containing 100 mg/L ampicillin and TSA plates containing 25 mg/L amphotericin B, to determine the number of fungal and bacterial CFUs after 2 days of incubation at 37° C., respectively. The percentage of C. albicans SC5314 and S. epidermidis cells was determined relative to the DMSO or ethanol control treatment.

Data set [14] has as its system bone-marrow derived mesenchymal stem cells (MSC). Nature of the data set: mammalian-cell viability assay, trypan blue staining. It is filed as cell-based. The following applies: 12.5 μM, 6 days exposure. The method, then: (§1) Cell viability of two human primary cell types, namely, osteoblasts (OB) and bone-marrow derived mesenchymal stem cells (MSC) was tested according to the ISO 10993-5 standard, as previously described. Briefly, cells were seeded in 96-well tissue culture test plates (TPP, Switzerland) at 5×10^3 cells/cm^2 in Advanced DMEM cell culture media supplemented with 10% serum, 1× GlutaMAX, 0.05 mg/mL Gentamycin, and were allowed to attach overnight. The next day, the cells were exposed to (i) cell culture medium and medium with the corresponding control (0.5% ethanol or DMSO) (negative controls), (ii) medium with 0.05% phenol (cytotoxic control), and (iii) medium with compounds (12.5 μM) and incubated for 2 h, 48 h and 6 days (8 repeats for each condition). At each time-point the numbers of viable and dead cells were determined directly by trypan blue staining, and indirectly by measuring the metabolic activity with MTT (3-(4,5-dimethylthiazol-2-yl)-2,5-diphenyltetrazolium bromide) staining.
(§2) The medium was removed from the wells, and 1/3 trypan blue in Dulbecco's modified Eagle's medium (DMEM) was added to the cells, incubated for 3 min, after which trypan blue was removed and DMEM medium was added to the wells. In each of four wells, two microscopy fields were counted for viable (transparent) and dead (blue) cells.

In data set [15] the test system is osteoblasts (OB). The description is as above. It is filed as cell-based. The following applies: 12.5 μM, 6 days exposure. The method, then:
as §1, §2

The subject of data set [16] is bone-marrow derived mesenchymal stem cells (MSC). Nature of the data set: osteogenic differentiation, calcium and DNA assay. It is filed as cell-based, human. Particulars: 12.5 μM, calcium content normalized by DNA, versus solvent control. The method, then:
(§3) The effect on osteogenic differentiation potential was assessed as previously described. Only the substances that allowed survival of the cells for more than 3 weeks, which is the time needed for mature osteogenic differentiation, were tested. Briefly, osteoblasts and bone-marrow derived mesenchymal stem cells were cultured in a positive solvent control (osteogenic medium with 0.5% DMSO or ethanol background), a negative control (medium without osteogenic supplements) and treated samples (osteogenic medium, 0.5% DMSO or ethanol background and 12.5 μM of test compound) with four repeats per condition. Mesenchymal stem cells and osteoblast cell cultures were harvested after 3 or 5 weeks, respectively, for the calcium and DNA assay.
(§4) Calcium deposition of osteoblasts and mesenchymal stem cells was measured with the Calcium CPC LiquiColor test (Stanbio Laboratory, Boerne, Tex.) as previously described. Briefly, cell cultures were extracted with 5% trichloroacetic acid (500 μl per sample), O-cresolphtalein complex was added, and the calcium content was determined spectrophotometrically at 550 nm. DNA content was determined as previously described. DNA values were used to normalize the calcium content. Four wells per condition were examined, and two samples from each well were taken for each assay.

Data set [17] has as its system osteoblasts (OB). The experiment in a line: osteogenic differentiation, calcium and DNA assay. The format is cell-based, human. The following applies: 12.5 μM, calcium content normalized by DNA, versus solvent control. The method, then:
as §3, §4

Where [18] appears, read: biofilm formation, read-out: BIC50.
Setting [19] is: planktonic growth, read-out: IC50.
Where [20] appears, read: mixed biofilm formation, read-out: BIC50.
The mark [21] stands for this setting: planktonic growth of mixed culture, read-out: IC50.
[22] abbreviates: read-out: BIC50, biofilm formation.
The mark [23] stands for this setting: read-out: BIC50, biofilm formation, 37° C.
[24] abbreviates: read-out: BIC50, biofilm formation, 25° C.
Setting [25] is: C. albicans in mixed biofilm with S. epidermidis, read-out: CFUs % survival C.a.
The mark [26] stands for this setting: S. epidermidis in mixed biofilm with C. albicans, read-out: CFUs % survival Se.
Setting [27] is: S. epidermidis in mixed biofilm with C. albicans, read-out: CFUs % survival S.c.

As for `CCCCNc1ncc(-c2ccc(Br)cc2)[nH]1` [Compound 4], the IC50 in [1] (setting [18]) is 4.4 µM; in data set [1] (setting [19]), 118 µM; in [2] it was 66.7 µM; in data set [3] (setting [20]), 17.8 µM; in data set [3] (setting [21]), > 400 µM; in data set [4] (setting [20]), 6.8 µM. Also, the IC50 in data set [4] (setting [21]) is ~118 µM; in data set [5] (planktonic growth), 60.1 µM; in [5] (setting [22]), ~12.3 µM; in data set [6] (planktonic growth) it was 89.4 µM; in data set [6] (setting [22]), 66.5 µM; in data set [7] (planktonic growth), 54.4 µM. The IC50 was > 400 µM in [7] (setting [22]); 8.2 µM in data set [8] (planktonic growth, 37° C.); 3.7 µM in data set [8] (setting [23]); 23 µM in [9] (planktonic growth); 84.7 µM in data set [9] (setting [22]); > 400 µM in data set [10] (planktonic growth, 37° C.). In addition, the IC50 in data set [10] (setting [24]) was 9.8 µM; in data set [10] (setting [23]) it was > 400 µM; in data set [11] (setting [24]) it was 7100 nM; in [12] (planktonic growth), > 400 µM; in data set [12] (setting [22]) it was 189 µM.

Regarding `Brc1ccc(-c2cnc(NCCn3cc(C4CC4)nn3)[nH]2)cc1` [Compound 6], the IC50 is 63.3 µM in data set [1] (setting [18]); > 400 µM in data set [1] (setting [19]); > 400 µM in [2]; 34.6 µM in data set [3] (setting [20]); > 400 µM in data set [3] (setting [21]); 33.9 µM in data set [4] (setting [20]). The IC50 in [4] (setting [21]) was ~392 µM; in data set [5] (planktonic growth), > 400 µM; in [5] (setting [22]), 75.2 µM; in [6] (planktonic growth), > 400 µM; in [6] (setting [22]), > 400 µM; in data set [7] (planktonic growth), > 400 µM. Besides, the IC50 is > 400 µM in [7] (setting [22]); 19.5 µM in [8] (planktonic growth, 37° C.); 18.1 µM in data set [8] (setting [22]); 183 µM in data set [9] (planktonic growth); ~192 µM in [9] (setting [22]); > 400 µM in [10] (planktonic growth, 25° C.). Besides, the IC50 in data set [10] (planktonic growth, 37° C.) was > 400 µM; in data set [10] (setting [24]) it was 71.6 µM; in data set [10] (setting [23]), > 400 µM; in [11] (planktonic growth, 25° C.) it was 2400 nM; in data set [11] (setting [22]), 2000 nM; in data set [12] (planktonic growth), > 400 µM. The IC50 in data set [12] (setting [22]) is > 400 µM. Further, the “anti-biofilm activity (in words)” value in data set [2] (monospecies biofilm, novel compounds: highest concentration tested 100 μM) is reported as “No activity”; in data set [6] (monospecies biofilm), “No activity”; in data set [7] (monospecies biofilm), “No activity”; in data set [10] (monospecies biofilm, 37° C.), “No activity”; in data set [12] (monospecies biofilm) it was “No activity”.

In the case of `CCCCCCCCn1c(-c2ccccc2)cnc1NCC(C)C` [Compound 8a, N-isobutyl-1-octyl-5-phenyl-1H-imidazol-2-amine], the activity at 100 µM in [13] (setting [25]) and in data set [13] (setting [26]) was 1% throughout. Further, the “inhibition of the mixed biofilm P. aeruginosa/E. coli (in words)” value in data set [3] was “strongly inhibited”. Further, the “proliferation (in words)” value in data set [14] and in data set [15] was “slightly reduced” throughout. In addition, the “anti-biofilm activity (in words)” value in [9] (biofilm at 37° C.) is “showed activity”; in data set [9] (biofilm cells at 25° C.), “potent activity”.

As to `CCCCCCCCn1c(-c2ccc(Cl)cc2)cnc1NCC(C)C` [Compound 8b, 5-(4-chlorophenyl)-N-isobutyl-1-octyl-1H-imidazol-2-amine], the activity at 25 µM in data set [13] (setting [25]) worked out at 2%; in data set [13] (setting [27]), 6.1%. Moreover, the activity at 100 µM in [13] (setting [26]) was 0.7%. Moreover, the “calcium deposition (in words)” value in data set [16] and in data set [17] was “induced the calcium deposition” each time. The “anti-biofilm activity (in words)” value in [9] (biofilm cells at 25° C.) is “potent activity”.

`CCCCCCCCn1c(-c2ccccc2)cnc1NC1CCCC1` [Compound 8e, N-cyclopentyl-1-octyl-5-phenyl-1H-imidazol-2-amine]: the activity at 25 µM in data set [13] (setting [25]) worked out at 10%. For the same compound, the figures for the activity at 100 µM in data set [13] (setting [25]) and in [13] (setting [26]) were 2.5% and 0%, respectively. Also, the “inhibition of the mixed biofilm P. aeruginosa/E. coli (in words)” value in data set [3] is on record as “at higher concentrations”. Also, the “proliferation (in words)” value in [14] and in [15] was “slightly reduced” throughout. For the same compound, the entries for the “anti-biofilm activity (in words)” value in [9] (biofilm at 37° C.) and in [9] (biofilm cells at 25° C.) were “showed activity” and “potent activity”, respectively.

For `CCCCCCCCn1c(-c2ccc(Cl)cc2)cnc1NC1CCCC1` [Compound 8f, 5-(4-chlorophenyl)-N-cyclopentyl-1-octyl-1H-imidazol-2-amine], the figures for the activity at 25 µM in data set [13] (setting [25]) and in data set [13] (setting [27]) were 2.9% and 2.5%, respectively. The activity at 100 µM in data set [13] (setting [25]) stood at 7.2%; in [13] (setting [26]), 0.3%. The “inhibition of the mixed biofilm P. aeruginosa/E. coli (in words)” value in data set [3] is on record as “at higher concentrations”. In addition, the “proliferation (in words)” value in [14] is on record as “slightly reduced”. In [9] (biofilm cells at 25° C.), the “anti-biofilm activity (in words)” value is “potent activity”.
